# Test results as given in patent US9522881B2, “Hydroxyindole carboxylic acid based inhibitors for oncogenic Src homology-2 domain containing protein tyrosine phosphatase-2 (SHP2)” (Indiana University Research and Technology Corporation, priority 2013, dated 2016).
# “Also recorded” adds a separate entry of the source.
# Key:
# [1] = test system: Paxillin (pY118); assay: Paxillin (pY118) phosphorylation in H1975 cells (immunoblot); format: cell-based, human
# Protocol: (§1) For biochemical studies, H1975 cells were serum-starved overnight followed by treatment with vehicle or compound 11a-1 for 3 hours, and then either left unstimulated or stimulated with 5 ng/ml EGF (Sigma, St. Louis, Mo.) for 60 minutes. Lysates were then resolved by SDS-PAGE and the protein phosphorylation levels were detected by immunoblot analysis. Specifically, cells were lysed in lysis buffer (1.0% Nonidet P-40, 50 mM Tris-HCl (pH 7.4), 150 mM NaCl, 5 mM EDTA, 2 mM NaVO3, 10 mM NaF) plus a protease inhibitor mixture available from Roche (Basel, Switzerland) and centrifuged at 10,000 rpm for 5 minutes at 4° C. Supernatants were collected and protein concentration was determined using the BCA protein assay (ThermoFisher Scientific, Rockford, Ill.). Equal amount of protein extracts were mixed with gel loading buffer and separated on SDS-PAGE. After electrophoresis, the proteins were transferred onto nitrocellulose membranes and nonspecific binding was blocked with 5% nonfat dry milk in Tris-buffered saline containing 0.1% Tween-20 (TBS-T). Membranes were then probed with various antibodies overnight at 4° C. on a rocker. After incubation, membranes were washed with TBS-T and incubated with appropriate horseradish peroxidase (HRP)-conjugated secondary antibodies for 1 hour at room temperature. Finally, the proteins on the membranes were detected using SuperSignal West Dura Luminol/Enhancer solution (ThermoFisher Scientific, Rockford, Ill.) and membranes were analyzed using Bio-Rad ChemiDoc XRS Imaging System.
# [2] = test system: primary low density bone marrow cells bearing KITD814V; assay: Proliferation of primary bone marrow cells bearing KITD814V; format: cell-based, C57BL/6 mice; settings: 1 μM and 5 μM, compared to II-B08
# Protocol: FIG. 8B is a graph depicting WT hematopoietic stem and progenitor cells bearing KITD814V that were starved of serum and growth factors for 6 hours and subjected to proliferation assay in the presence or absence of indicated concentration of II-B08 or 11a-1 as analyzed in Example 6. Bars denote the mean thymidine incorporation (CPM±SD) performed in triplicate from one experiment. *p<0.05.
# To further determine the effect of II-B08 and compound 11a-1 on primary bone marrow cells bearing oncogenic KITD814V, primary low density bone marrow cells from C57BL/6 mice were transduced with KITD814V and sorted cells were subjected to a proliferation assay in the presence or absence of the SHP2 inhibitors, II-B08 and compound 11a-1. To express WT KIT and KITD814V receptors in bone marrow cells, low density bone marrow cells were collected from WT mice, and pre-stimulated in IMDM supplemented with 20% FBS, 2% penicillin/streptomycin, and cytokines (100 ng/mL SCF, 100 ng/mL TPO, 50 ng/mL FLT3-L and 4 ng/mL IL-6) for 48 hours prior to retroviral infection on fibronectin fragments (Retronectin) in non-tissues culture plates. On the third day, cells were infected with 2 mL of high-titer retroviral supernatants for WT KIT or KITD814V prepared as described above. A second shot of viral infection was given 24 hours later. […]
# [3] = biological target: Laforin (Homo sapiens (Human), UniProt O95278); assay: PTP selectivity panel, pNPP; format: biochemical, mammalian; settings: pNPP at Km
# [4] = biological target: PTPμ (Homo sapiens (Human), UniProt P28827); assay: PTP selectivity panel, pNPP; format: biochemical, mammalian; settings: pNPP at Km
# [5] = test system: PMA-induced Erk1/2 phosphorylation; assay: PMA-induced Erk1/2 phosphorylation; format: cell-based
# Protocol: To provide further evidence that the observed cellular effect of compound 11a-1 is SHP2 dependent, the effect of compound 11a-1 on PMA (phorbol 12-myristate 13-acetate)-induced Erk1/2 activation, which is SHP2 independent and instead depends on the activation of protein kinase C and Raf in a Ras-independent manner, was evaluated. Thus, SHP2 inhibitors would not be expected to affect PMA-induced Erk1/2 phosphorylation. Indeed, compound 11a-1 had no effect on PMA-induced Erk1/2 phosphorylation (FIG. 6D).
# [6] = test system: EGF-induced Erk1/2 phosphorylation; assay: EGF-induced Erk1/2 phosphorylation in H1975 cells (immunoblot); format: cell-based, human
# Protocol: as §1
# [7] = test system: SKBR3 cells; assay: SKBR3 breast cancer cell growth in Matrigel; format: cell-based
# Protocol: (§2) Approximately 300,000 SKBR3 cells were seeded into 150 μl of growth factor reduced Matrigel (Corning, Corning, N.Y.) in 35 mm dishes. To 3 dishes for each condition, 2 mL of media containing either 10 μl vehicle (DMSO) or compound 11a-1 at the indicated concentration was then added. Every 24 hours, the cells were imaged with a NIKON SMZ1500 stereomicroscoppe. The cross-sectional area of individual colonies from each image were measured using Adobe Photoshop software. After 4 days, the cells were recovered from the Matrigel and lysed in PLC buffer containing protease inhibitor cocktail (Cat. No. P8340; Sigma-Aldrich, St. Louis, Mo.). Lysates were then resolved by SDS-PAGE and relative levels of the indicated proteins were detected by immunoblot analysis.
# [8] = biological target: MKP5 (Homo sapiens (Human), UniProt Q9Y6W6); assay: PTP selectivity panel, pNPP; format: biochemical, mammalian; settings: pNPP at Km
# [9] = biological target: VHZ (Homo sapiens (Human), UniProt Q9BVJ7); assay: PTP selectivity panel, pNPP; format: biochemical, mammalian; settings: pNPP at Km
# [10] = biological target: VHR (Homo sapiens (Human), UniProt P51452); assay: PTP selectivity panel, pNPP; format: biochemical, mammalian; settings: pNPP at Km
# [11] = biological target: PTPH1 (Homo sapiens (Human), UniProt P26045); assay: PTP selectivity panel, pNPP; format: biochemical, mammalian; settings: pNPP at Km
# [12] = biological target: UBLCP1 (Homo sapiens (Human), UniProt Q8WVY7); assay: PTP selectivity panel, pNPP; format: biochemical, mammalian; settings: pNPP at Km
# [13] = test system: Erk1/2 and Akt phosphorylation; assay: Erk1/2 and Akt phosphorylation in SKBR3 cells recovered from Matrigel (immunoblot); format: cell-based; settings: 1 μM to 10 μM, 4 days in Matrigel
# Protocol: as §2
# [14] = biological target: PTPα (Homo sapiens (Human), UniProt P18433); assay: PTP selectivity panel, pNPP; format: biochemical, mammalian; settings: pNPP at Km
# [15] = biological target: PTPγ (Homo sapiens (Human), UniProt P23470); assay: PTP selectivity panel, pNPP; format: biochemical, mammalian; settings: pNPP at Km
# [16] = biological target: SHP1 (Homo sapiens (Human), UniProt P29350); assay: PTP selectivity panel, pNPP; format: biochemical, mammalian
# [17] = biological target: PTPε (Homo sapiens (Human), UniProt P23469); assay: PTP selectivity panel, pNPP; format: biochemical, mammalian; settings: pNPP at Km
# Chain of PTPε (P23469 20-700): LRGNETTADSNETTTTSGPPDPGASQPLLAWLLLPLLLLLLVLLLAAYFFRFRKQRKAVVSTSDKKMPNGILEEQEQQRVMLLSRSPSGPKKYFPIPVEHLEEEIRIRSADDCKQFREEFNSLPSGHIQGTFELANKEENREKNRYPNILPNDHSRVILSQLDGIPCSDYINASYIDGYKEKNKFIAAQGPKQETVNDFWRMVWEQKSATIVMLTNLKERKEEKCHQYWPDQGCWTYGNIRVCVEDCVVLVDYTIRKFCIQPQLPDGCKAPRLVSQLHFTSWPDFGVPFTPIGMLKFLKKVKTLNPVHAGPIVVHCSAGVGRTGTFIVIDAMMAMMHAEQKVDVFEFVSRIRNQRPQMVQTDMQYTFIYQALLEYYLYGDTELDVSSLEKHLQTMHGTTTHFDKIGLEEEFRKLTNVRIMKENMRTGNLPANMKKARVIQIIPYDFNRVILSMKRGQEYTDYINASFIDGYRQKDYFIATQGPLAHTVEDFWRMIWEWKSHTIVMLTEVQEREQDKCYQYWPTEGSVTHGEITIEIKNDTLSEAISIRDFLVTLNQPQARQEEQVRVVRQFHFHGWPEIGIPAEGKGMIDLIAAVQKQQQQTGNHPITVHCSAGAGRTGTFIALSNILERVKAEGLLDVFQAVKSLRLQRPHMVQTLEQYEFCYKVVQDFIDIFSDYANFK
# Chain of SHP1 (P29350 whole entry): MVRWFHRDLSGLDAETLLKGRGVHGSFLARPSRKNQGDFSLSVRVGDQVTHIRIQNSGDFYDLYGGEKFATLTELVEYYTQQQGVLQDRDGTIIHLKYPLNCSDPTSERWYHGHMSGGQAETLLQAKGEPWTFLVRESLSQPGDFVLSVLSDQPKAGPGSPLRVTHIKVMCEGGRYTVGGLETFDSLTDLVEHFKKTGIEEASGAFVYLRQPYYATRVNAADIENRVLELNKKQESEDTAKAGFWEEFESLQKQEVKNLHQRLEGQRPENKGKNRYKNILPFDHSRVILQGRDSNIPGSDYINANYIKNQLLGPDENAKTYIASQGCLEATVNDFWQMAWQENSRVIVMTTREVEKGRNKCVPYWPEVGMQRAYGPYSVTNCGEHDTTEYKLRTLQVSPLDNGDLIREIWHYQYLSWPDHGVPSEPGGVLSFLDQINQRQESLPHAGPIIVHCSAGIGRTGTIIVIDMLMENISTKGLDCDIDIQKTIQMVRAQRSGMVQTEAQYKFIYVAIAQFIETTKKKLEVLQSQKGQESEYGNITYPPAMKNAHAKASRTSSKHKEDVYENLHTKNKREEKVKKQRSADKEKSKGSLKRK
# Chain of UBLCP1 (Q8WVY7 whole entry, species assumed): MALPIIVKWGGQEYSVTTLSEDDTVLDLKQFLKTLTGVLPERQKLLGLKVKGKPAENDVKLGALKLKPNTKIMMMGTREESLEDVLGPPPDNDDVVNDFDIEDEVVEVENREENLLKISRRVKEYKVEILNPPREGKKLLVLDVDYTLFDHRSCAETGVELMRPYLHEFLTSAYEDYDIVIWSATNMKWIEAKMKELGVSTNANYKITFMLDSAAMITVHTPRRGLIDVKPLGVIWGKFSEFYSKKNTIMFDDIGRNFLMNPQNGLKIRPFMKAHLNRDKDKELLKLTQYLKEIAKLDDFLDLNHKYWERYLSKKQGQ
# Chain of VHR (P51452 whole entry, species assumed): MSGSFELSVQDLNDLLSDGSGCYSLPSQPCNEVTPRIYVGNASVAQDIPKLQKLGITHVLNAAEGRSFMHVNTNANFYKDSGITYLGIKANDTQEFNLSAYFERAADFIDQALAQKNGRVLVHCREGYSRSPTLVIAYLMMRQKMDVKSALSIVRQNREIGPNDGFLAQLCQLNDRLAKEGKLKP
# Chain of PTPα (P18433 whole entry, looked up): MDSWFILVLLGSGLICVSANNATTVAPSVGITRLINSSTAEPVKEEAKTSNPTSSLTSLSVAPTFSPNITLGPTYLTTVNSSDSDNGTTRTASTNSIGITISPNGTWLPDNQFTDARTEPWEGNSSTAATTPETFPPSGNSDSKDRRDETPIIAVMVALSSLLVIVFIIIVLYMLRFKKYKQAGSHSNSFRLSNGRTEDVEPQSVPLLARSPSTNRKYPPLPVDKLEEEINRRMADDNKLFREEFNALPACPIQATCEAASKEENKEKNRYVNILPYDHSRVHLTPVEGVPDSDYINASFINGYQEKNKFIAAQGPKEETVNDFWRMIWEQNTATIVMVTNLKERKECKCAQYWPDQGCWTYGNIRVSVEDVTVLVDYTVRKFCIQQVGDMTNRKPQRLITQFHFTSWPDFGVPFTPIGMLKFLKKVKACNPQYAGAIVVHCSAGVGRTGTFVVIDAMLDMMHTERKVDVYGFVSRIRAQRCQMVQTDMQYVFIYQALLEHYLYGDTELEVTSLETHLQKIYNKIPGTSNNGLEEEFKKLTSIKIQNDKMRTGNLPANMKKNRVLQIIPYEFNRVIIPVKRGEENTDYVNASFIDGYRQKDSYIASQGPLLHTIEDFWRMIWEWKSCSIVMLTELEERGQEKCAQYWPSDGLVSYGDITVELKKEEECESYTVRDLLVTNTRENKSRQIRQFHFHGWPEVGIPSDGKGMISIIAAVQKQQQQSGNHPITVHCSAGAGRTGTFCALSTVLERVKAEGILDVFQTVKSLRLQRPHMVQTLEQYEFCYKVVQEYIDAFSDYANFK
# Chain of Laforin (O95278 whole entry, species assumed): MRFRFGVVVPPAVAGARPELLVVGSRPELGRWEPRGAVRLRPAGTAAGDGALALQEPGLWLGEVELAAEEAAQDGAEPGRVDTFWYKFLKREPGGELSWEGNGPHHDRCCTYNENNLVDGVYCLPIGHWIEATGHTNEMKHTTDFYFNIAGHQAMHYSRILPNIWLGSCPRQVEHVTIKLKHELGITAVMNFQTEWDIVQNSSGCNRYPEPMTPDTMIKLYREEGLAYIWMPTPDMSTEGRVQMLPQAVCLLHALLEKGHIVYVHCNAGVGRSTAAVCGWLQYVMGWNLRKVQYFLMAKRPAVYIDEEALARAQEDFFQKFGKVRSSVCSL
# Chain of MKP5 (Q9Y6W6 whole entry, species assumed): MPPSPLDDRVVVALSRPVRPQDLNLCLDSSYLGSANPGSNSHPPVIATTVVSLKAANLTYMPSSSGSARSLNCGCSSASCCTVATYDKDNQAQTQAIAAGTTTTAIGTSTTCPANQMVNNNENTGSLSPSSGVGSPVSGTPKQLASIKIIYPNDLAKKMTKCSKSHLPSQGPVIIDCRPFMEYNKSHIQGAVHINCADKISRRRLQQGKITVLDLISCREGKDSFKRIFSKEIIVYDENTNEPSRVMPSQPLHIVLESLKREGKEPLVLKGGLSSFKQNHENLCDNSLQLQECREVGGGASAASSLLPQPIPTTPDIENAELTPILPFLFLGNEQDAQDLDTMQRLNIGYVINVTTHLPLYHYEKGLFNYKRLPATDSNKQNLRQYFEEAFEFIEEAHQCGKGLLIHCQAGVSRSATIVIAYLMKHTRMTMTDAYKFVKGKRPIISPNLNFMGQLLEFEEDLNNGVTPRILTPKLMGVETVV
# Chain of PTPγ (P23470 20-1445): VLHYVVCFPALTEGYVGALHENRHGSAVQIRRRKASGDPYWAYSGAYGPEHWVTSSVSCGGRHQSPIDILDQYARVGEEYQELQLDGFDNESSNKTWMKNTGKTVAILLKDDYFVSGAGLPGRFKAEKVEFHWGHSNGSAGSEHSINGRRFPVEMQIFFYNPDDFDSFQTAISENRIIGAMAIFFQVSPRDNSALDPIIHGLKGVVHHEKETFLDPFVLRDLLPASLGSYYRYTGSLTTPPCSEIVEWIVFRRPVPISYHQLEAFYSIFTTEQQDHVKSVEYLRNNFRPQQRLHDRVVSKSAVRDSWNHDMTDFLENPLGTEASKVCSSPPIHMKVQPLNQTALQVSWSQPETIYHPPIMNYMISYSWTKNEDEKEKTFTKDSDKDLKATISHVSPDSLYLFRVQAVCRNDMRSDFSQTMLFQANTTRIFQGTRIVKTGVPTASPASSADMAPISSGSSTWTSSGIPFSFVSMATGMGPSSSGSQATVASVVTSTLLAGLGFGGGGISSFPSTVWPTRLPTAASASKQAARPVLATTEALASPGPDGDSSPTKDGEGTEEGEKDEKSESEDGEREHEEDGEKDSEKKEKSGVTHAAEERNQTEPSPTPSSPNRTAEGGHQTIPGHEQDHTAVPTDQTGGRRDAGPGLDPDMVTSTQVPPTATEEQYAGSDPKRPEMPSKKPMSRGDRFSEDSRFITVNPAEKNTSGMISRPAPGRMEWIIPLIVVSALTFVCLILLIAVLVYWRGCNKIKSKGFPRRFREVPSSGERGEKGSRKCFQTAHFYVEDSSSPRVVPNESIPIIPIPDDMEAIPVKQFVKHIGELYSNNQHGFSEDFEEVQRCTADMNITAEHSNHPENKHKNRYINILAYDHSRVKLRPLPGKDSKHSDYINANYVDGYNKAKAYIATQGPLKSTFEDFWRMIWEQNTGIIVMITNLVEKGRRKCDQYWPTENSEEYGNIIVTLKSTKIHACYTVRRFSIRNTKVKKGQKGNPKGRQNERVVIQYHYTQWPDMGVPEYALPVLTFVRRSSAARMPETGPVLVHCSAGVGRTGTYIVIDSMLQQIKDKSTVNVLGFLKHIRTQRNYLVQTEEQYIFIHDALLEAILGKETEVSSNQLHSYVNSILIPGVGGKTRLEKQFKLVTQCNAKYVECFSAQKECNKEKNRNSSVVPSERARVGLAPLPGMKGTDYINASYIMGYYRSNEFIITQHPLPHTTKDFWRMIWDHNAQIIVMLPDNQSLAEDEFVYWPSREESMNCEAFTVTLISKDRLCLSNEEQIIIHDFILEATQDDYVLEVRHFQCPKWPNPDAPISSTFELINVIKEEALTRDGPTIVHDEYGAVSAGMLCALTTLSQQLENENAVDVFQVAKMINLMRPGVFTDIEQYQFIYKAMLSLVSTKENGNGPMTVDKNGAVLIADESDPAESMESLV
# Chain of VHZ (Q9BVJ7 whole entry, species assumed): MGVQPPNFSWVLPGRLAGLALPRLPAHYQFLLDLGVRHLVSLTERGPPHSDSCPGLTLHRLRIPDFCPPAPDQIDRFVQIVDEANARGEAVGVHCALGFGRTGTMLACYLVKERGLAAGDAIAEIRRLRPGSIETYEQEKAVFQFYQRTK
smiles,measurement,setting,value
"Cn1c(-c2cccc(NC(=O)C(=O)Nc3ccc(-c4ccsc4)cc3)c2)c(I)c2cc(C(=O)O)c(O)cc21 [11a-1, 6-hydroxy-3-iodo-1-methyl-2-(3-(2-oxo-2-((4-(thiophen-3-yl)phenyl)amino)acetamido)phenyl)-1H-indole-5-carboxylic acid]",augmentation of Paxillin phosphorylation,[1]; 2 μM,30%
same,effect on EGF induced Paxillin (Y118) phosphorylation,[1]; dose-dependent,dose-dependently increased
same,growth of primary bone marrow cells bearing KITD814V,[2],significant reduced growth
same,IC50,[3],12.2 ± 2 µM
same,IC50,[4],3.3 ± 0.2 µM
same,effect on PMA-induced Erk1/2 phosphorylation,[5],no effect
same,reduction of Erk1/2 phosphorylation,"[6]; H1975 cells, 2 μM",40%
same,effect on EGF-induced Erk1/2 phosphorylation,"[6]; H1975 cells, dose-dependent",effectively reduced; also recorded: decreased
same,ability to inhibit EGF-mediated Erk1/2 activation in SHP2 knocked down cells,[6]; SHP2 knocked down with siRNA,blunted
same,growth of SKBR3 cells in Matrigel,"[7]; 3 μM, within 24 hours",potently inhibited
same,ErbB2+ breast cancer cell growth in a 3D Matrigel environment,"[7]; SKBR3, over 4 days, indicated concentrations",inhibited
same,IC50,[8],2.9 ± 0.1 µM
same,IC50,[9],2.3 ± 0.2 µM
same,IC50,[10],3.19 ± 0.09 µM
same,IC50,[11],1.07 ± 0.07 µM
same,IC50,[12],9.7 ± 0.5 µM
same,Erk1/2 and Akt phosphorylation in SKBR3 cells,[13],concordantly inhibited
same,IC50,[14],> 100 µM
same,IC50,[15],2.4 ± 0.4 µM
same,preference for SHP2 over SHP1,[16],7 fold
same,IC50,[16]; pNPP at Km,1.44 ± 0.04 µM
same,IC50,[17],> 20 µM
